In US11377425B1, “Small molecule modulators of IL-17” (LEO Pharma A/S, priority 2018, dated 2022):
pEC50: −log10 of the molar value.

Biological target: T1, human IL-17AA (Homo sapiens, UniProt Q16552)
T1 construct: host or cells: HEK (human embryonic kidney) cells
T1 sequence (Q16552 24-155): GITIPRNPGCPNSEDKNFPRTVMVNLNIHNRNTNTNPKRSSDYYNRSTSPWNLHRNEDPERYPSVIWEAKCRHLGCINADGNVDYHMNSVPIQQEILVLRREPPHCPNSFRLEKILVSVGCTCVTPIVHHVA
Assay: IL-8 release assay in human epithelial keratinocytes adult (HEKa)
Format: cell-based
Conditions: HEKa cells, 3 ng/mL HEK-human IL-17AA + 10 ng/mL human TNFalpha; read-out: Rel EC50 IL-8 release assay
In short: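 Adult human epidermal keratinocytes stimulated 68-72 h at 37 °C with 3 ng/mL HEK-derived human IL-17AA plus 10 ng/mL TNF-alpha (final) in the presence of compound; TNF-alpha alone defines 100% inhibition. Secreted IL-8 measured by HTRF as percent of controls; relative IC50/Emax from four-parameter fit (r^2>0.9), cytotoxicity by PrestoBlue.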

Row | Structure (SMILES) | pEC50
1 | Cc1n[nH]c(C)c1-c1ccc(NC(=O)[C@@H](NC(=O)c2ccnn2C)[C@H]2CCc3ccccc32)cc1 [Example 79, N-[(1S)-2-[4-(3,5-dimethyl-1H-pyrazol-4-yl)anilino]-1-[(1S)-indan-1-yl]-2-oxo-ethyl]-2-methyl-pyrazole-3-carboxamide] | > 7.00
2 | Cc1n[nH]c(C)c1-c1ccc(NC(=O)[C@@H](NC(=O)c2ccnn2C)[C@H]2CCc3ccc(C#N)cc32)cc1 [Example 80, N-[(1S)-1-[(1S)-6-cyanoindan-1-yl]-2-[4-(3,5-dimethyl-1H-pyrazol-4-yl)anilino]-2-oxo-ethyl]-2-methyl-pyrazole-3-carboxamide] | 6.00 to 7.00
3 | Cc1n[nH]c(C)c1-c1ccc(NC(=O)[C@@H](NC(=O)c2ccnn2C)[C@H]2CCCc3ccccc32)cc1 [Example 81, N-[(1S)-2-[4-(3,5-dimethyl-1H-pyrazol-4-yl)anilino]-2-oxo-1-[(1S)-tetralin-1-yl]ethyl]-2-methyl-pyrazole-3-carboxamide] | > 7.00
4 | Cc1n[nH]c(C)c1-c1ccc(NC(=O)[C@@H](NC(=O)c2ccnn2C)[C@H]2CCCc3ccc(C#N)cc32)cc1 [Example 82, N-[(1S)-1-[(1S)-7-cyanotetralin-1-yl]-2-[4-(3,5-dimethyl-1H-pyrazol-4-yl)anilino]-2-oxo-ethyl]-2-methyl-pyrazole-3-carboxamide] | 6.00 to 7.00
5 | Cc1ncn(C)c1-c1ccc(NC(=O)C(NC(=O)OC(C)(C)C)C(C2CC2)C2CC2)cc1 (stereo not shown) [Example 84, tert-butyl N-[1-(dicyclopropylmethyl)-2-[4-(3,5-dimethylimidazol-4-yl)anilino]-2-oxo-ethyl]carbamate] | 6.00 to 7.00
6 | CCC(CC)[C@H](NC(=O)OC(C)(C)C)C(=O)Nc1ccc(-c2c(C)ncn2C)cc1 [Example 89, tert-butyl N-[(1S)-1-[[4-(3,5-dimethylimidazol-4-yl)phenyl]carbamoyl]-2-ethyl-butyl]carbamate] | < 6.00
7 | CCC(C)[C@H](NC(=O)OC(C)(C)C)C(=O)Nc1ccc(-c2cncn2C)cc1 (stereo partly drawn) [Example 94, tert-butyl N-[(1S)-2-methyl-1-[[4-(3-methylimidazol-4-yl)phenyl]carbamoyl]butyl] carbamate] | < 6.00
8 | Cn1cncc1-c1ccc(NC(=O)[C@H](Cc2ccccc2)NC(=O)OC(C)(C)C)cc1 [Example 95, tert-butyl N-[(1S)-1-benzyl-2-[4-(3-methylimidazol-4-yl)anilino]-2-oxo-ethyl]carbamate] | < 6.00
9 | Cn1cncc1-c1ccc(NC(=O)[C@H](Cc2ccccc2Cl)NC(=O)OC(C)(C)C)cc1 [Example 97, tert-butyl N-[(1S)-1-[(2-chlorophenyl)methyl]-2-[4-(3-methylimidazol-4-yl)anilino]-2-oxo-ethyl]carbamate] | < 6.00
10 | Cn1cncc1-c1ccc(NC(=O)[C@@H](NC(=O)OC(C)(C)C)C(c2ccccc2)c2ccccc2)cc1 [Example 101, tert-butyl N-[(1S)-1-benzhydryl-2-[4-(3-methylimidazol-4-yl)anilino]-2-oxo-ethyl]carbamate] | < 6.00
11 | Cc1n[nH]c(C)c1-c1ccc(NC(=O)[C@@H](NC(=O)c2ccnn2CCCO)C(C2CC2)C2CC2)cc1 [Example 102, N-[(1S)-1-(dicyclopropylmethyl)-2-[4-(3,5-dimethyl-1H-pyrazol-4-yl)anilino]-2-oxo-ethyl]-2-(3-hydroxypropyl)pyrazole-3-carboxamide] | > 7.00
12 | Cc1n[nH]c(C)c1-c1ccc(NC(=O)[C@H](NC(=O)c2ccnn2C)C2CCCCC2)cc1 [Example 103, N-[(1R)-1-cyclohexyl-2-[4-(3,5-dimethyl-1H-pyrazol-4-yl)anilino]-2-oxo-ethyl]-2-methyl-pyrazole-3-carboxamide] | < 6.00
13 | Cc1n[nH]c(C)c1-c1ccc(NC(=O)[C@@H](NC(=O)c2ccnn2CC(F)F)C2CCCCC2)cc1 [Example 106, N-[(1S)-1-cyclohexyl-2-[4-(3,5-dimethyl-1H-pyrazol-4-yl)anilino]-2-oxo-ethyl]-2-(2,2-difluoroethyl)pyrazole-3-carboxamide] | > 7.00
14 | CCn1nccc1C(=O)N[C@H](C(=O)Nc1ccc(-c2c(C)n[nH]c2C)cc1)C(C1CC1)C1CC1 [Example 107, N-[(1S)-1-(dicyclopropylmethyl)-2-[4-(3,5-dimethyl-1H-pyrazol-4-yl)anilino]-2-oxo-ethyl]-2-ethyl-pyrazole-3-carboxamide] | > 7.00
15 | Cc1n[nH]c(C)c1-c1ccc(NC(=O)[C@@H](NC(=O)c2ccnn2C2CCC2)C2CCCCC2)cc1 [Example 108, 2-cyclobutyl-N-[(1S)-1-cyclohexyl-2-[4-(3,5-dimethyl-1H-pyrazol-4-yl)anilino]-2-oxo-ethyl]pyrazole-3-carboxamide] | > 7.00

Results, then the compound that gave them:

Row | pEC50 | Structure (SMILES)
16 | 6.00 to 7.00 | Cc1ncn(C)c1-c1ccc(NC(=O)[C@@H](NC(=O)OC(C)(C)C)C2CCCCC2)cc1 [Example 83, tert-butyl N-[(1S)-1-cyclohexyl-2-[4-(3,5-dimethylimidazol-4-yl)anilino]-2-oxo-ethyl]carbamate]
17 | < 6.00 | Cc1ncn(C)c1-c1ccc(NC(=O)[C@@H](NC(=O)OC(C)(C)C)C2CCCC2)cc1 [Example 87, tert-butyl N-[(1S)-1-cyclopentyl-2-[4-(3,5-dimethylimidazol-4-yl)anilino]-2-oxo-ethyl]carbamate]
18 | 6.00 to 7.00 | Cc1ncn(C)c1-c1ccc(NC(=O)[C@@H](NC(=O)OC(C)(C)C)C2CCCCCC2)cc1 [Example 88, tert-butyl N-[(1S)-1-cycloheptyl-2-[4-(3,5-dimethylimidazol-4-yl)anilino]-2-oxo-ethyl]carbamate]
19 | < 6.00 | CC(C)[C@H](NC(=O)OC(C)(C)C)C(=O)Nc1ccc(-c2cncn2C)cc1 [Example 91, tert-butyl N-[(1S)-2-methyl-1-[[4-(3-methylimidazol-4-yl)phenyl]carbamoyl]propyl] carbamate]
20 | < 6.00 | Cn1cncc1-c1ccc(NC(=O)[C@@H](NC(=O)OC(C)(C)C)C2CCC2)cc1 [Example 92, tert-butyl N-[(1S)-1-cyclobutyl-2-[4-(3-methylimidazol-4-yl)anilino]-2-oxo-ethyl]carbamate]
21 | < 6.00 | Cn1cncc1-c1ccc(NC(=O)[C@H](CC2CCCCC2)NC(=O)OC(C)(C)C)cc1 [Example 93, tert-butyl N-[(1S)-1-(cyclohexylmethyl)-2-[4-(3-methylimidazol-4-yl)anilino]-2-oxo-ethyl]carbamate]
22 | < 6.00 | CC(C)C[C@H](NC(=O)OC(C)(C)C)C(=O)Nc1ccc(-c2cncn2C)cc1 [Example 96, tert-butyl N-[(1S)-3-methyl-1-[[4-(3-methylimidazol-4-yl)phenyl]carbamoyl]butyl] carbamate]
23 | < 6.00 | Cn1cncc1-c1ccc(NC(=O)[C@@H](NC(=O)OC(C)(C)C)C2CCCC2)cc1 [Example 98, tert-butyl N-[(1S)-1-cyclopentyl-2-[4-(3-methylimidazol-4-yl)anilino]-2-oxo-ethyl]carbamate]
24 | < 6.00 | Cn1cncc1-c1ccc(NC(=O)[C@@H](NC(=O)OC(C)(C)C)C2Cc3ccccc3C2)cc1 [Example 99, tert-butyl N-[(1S)-1-indan-2-yl-2-[4-(3-methylimidazol-4-yl)anilino]-2-oxo-ethyl]carbamate]
25 | < 6.00 | Cn1cncc1-c1ccc(NC(=O)[C@@H](NC(=O)OC(C)(C)C)C2CCCCC2)cc1 [Example 100, tert-butyl N-[(1S)-1-cyclohexyl-2-[4-(3-methylimidazol-4-yl)anilino]-2-oxo-ethyl]carbamate]
